Measurements from patent US20080213249A1, “Use of Retro-Aldol Reaction to Generate Reactive Vinyl Ketone for Attachment to Antibody Molecules by Michael Addition Reaction for Use in Immunostaining and Immunotargeting” (THE SCRIPPS RESEARCH INSITUTE, priority 2006, published 2008).

Columns and labels:
[1] = test system: HIV primary isolates and laboratory-adapted strains; conditions: cited from earlier work
[2] = test system: antibody 38C2; test: Inactivation of the catalytic (aldolase) activity of antibody 38C2, fluorescence assay with methadol as substrate; assay type: biochemical, mouse; conditions: preliminary studies, unpublished results
Method: To assess the potential of 2a, 3a, 2c, and 3c as programming agents, these compounds were separately mixed with antibody 38C2 at a ratio of 2:1, and the mixtures were incubated at 37° C. for 2 h. A fluorescence assay, based on using methadol as the substrate, was used to assess time-dependent inactivation of the catalytic activity of the antibody (14). Inactivation of aldolase activity should be indicative of modification of the catalytic lysine residue and, thus, chemical programming of the antibody. In the absence of the programming agents, 38C2 rapidly catalyzed the retro-aldol reaction of methadol to produce the fluorescent product 6-methoxy-2-naphthaldehyde. […] (The cpAb 38C2 using targeting agents 2a or 3a were named as 38C2-2b and 38C2-3b, respectively, based on the fact that compounds 2b and 3b were the expected ligands that conjugated with 38C2. Similarly, the analogous chemically programmed 38C2 Fab (or cp38C2Fab) construct obtained from 3a was named as 38C2Fab-3b.) These observations clearly supported the assumption that vinyl ketones, 2b and 3b, produced in situ from their acetone adducts, reacted with the active site of the antibody and also reinforced the previously described construct formation from the analogous diketone compounds 2c and 3c.

Structure (SMILES)	anti-HIV activity [1]	inactivation of the antibody [2]
C=C(C)[C@@H]1CC[C@]2(C(=O)NCCCCCCCC(=O)N[C@@H](CC(C)C)[C@H](O)CC(=O)O)CC[C@]3(C)[C@H](CC[C@@H]4[C@@]5(C)CC[C@H](O)C(C)(C)[C@@H]5CC[C@]43C)[C@@H]12 [IC9564]	can inhibit both HIV primary isolates and laboratory-adapted strains	
C=CC(C)=O [methylvinyl ketone]		rapidly inactivated the antibody
